Reference: publication PMC11220592 (Chemical Science, 2024)
Entries after “also recorded” stand apart in the source; their conditions may differ. Counter-ions that a name gives are not always drawn.

Key:
VeroE6 cells = assay: Cellular bismuth uptake; format: cell-based, African green monkey; conditions: 24 hours, ICP-MS
SARS-CoV-2 Omicron BA.5 = assay: Viral load reduction assay; format: cell-based; conditions: Fig. S7
SARS-CoV-2 = conditions: read-out: EC50 (antiviral activity); previously reported; cited from earlier work

Nc1ccc([O-])c(=O)cc1.Nc1ccc([O-])c(=O)cc1.Nc1ccc([O-])c(=O)cc1.[Bi+3] [Bi(Tro-NH2)3, Bi(5-aminotropolonate)3]
cellular uptake of Bi(III) (VeroE6 cells): poor cellular uptake of Bi(III) | antiviral activity in virus-infected cells (SARS-CoV-2 Omicron BA.5): did not show antiviral activity as good as that at the enzyme level; also recorded: did not show potent antiviral activity in virus-infected cells

CNC(=C[N+](=O)[O-])NCCSCc1ccc(CN(C)C)o1 [RBC, ranitidine bismuth citrate]
EC50 (SARS-CoV-2): 2300 nM
